Measurements published in US6608082B1, “Treatment of erectile dysfunction using isoquinoline compound melanocortin receptor ligands” (Lion Bioscience AG, priority 1998, dated 2003).

What follows are molecules tested against T1, MCR-1 (Homo sapiens, UniProt Q01726) (assay: Melanocortin receptor binding assay, competition with 125I-HP 467, HEK 293 cells expressing hMCR-1). Details: 10 μM isoquinoline compound, HEK 293 cells expressing MCR-1, duplicate 1.
T1 construct: expressed in transfected cells; host or cells: HEK 293
Procedure, shortened: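 Intact-cell competition binding, 2.5 hr at 37 °C, in PBS/10% calf serum/1 mM CaCl2; hMCR-4 cells at 4×10^3 per tube, hMCR-1 cells at 2×10^4 per tube. Filtration on BSA/CaCl2-soaked GF/B, cold 50 mM Tris pH 7.4 washes, scintillation count.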

T1 sequence (Q01726 whole entry): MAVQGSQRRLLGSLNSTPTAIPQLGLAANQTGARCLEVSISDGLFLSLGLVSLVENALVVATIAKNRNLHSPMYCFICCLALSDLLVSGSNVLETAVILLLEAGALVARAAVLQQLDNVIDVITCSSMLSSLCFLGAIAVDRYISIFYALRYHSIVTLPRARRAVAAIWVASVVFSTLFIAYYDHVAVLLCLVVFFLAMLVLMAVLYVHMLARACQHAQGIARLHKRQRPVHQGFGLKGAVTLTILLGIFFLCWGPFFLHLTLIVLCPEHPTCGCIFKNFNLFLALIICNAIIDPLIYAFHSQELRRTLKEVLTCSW

Row | SMILES | % Disp. of 125I-HP 467 (first of duplicate)
1 | CNC(CN)CCCCN1Cc2ccccc2C(CNC2CCCCC2)C1c1ccnc2ccccc12 (stereo not drawn) [TRG 2405-255] | 29.2%
2 | CNC(CN)CCCCN1Cc2ccccc2C(CNC2CCCCC2)C1c1ccc(C)s1 (stereo not drawn) [TRG 2405-258] | 80.7%
3 | CNC(CN)CCCCN1Cc2ccccc2C(CNC2CCCCC2)C1c1ccc(C)o1 (stereo not drawn) [TRG 2405-259] | 42.5%
4 | CNC(CN)CCCCN1Cc2ccccc2C(CNC2CCCCC2)C1c1cccc(C)n1 (stereo not drawn) [TRG 2405-261] | 45.9%
5 | CCn1c2ccccc2c2cc(C3C(CNC4CCCCC4)c4ccccc4CN3CCCCC(CN)NC)ccc21 (stereo not drawn) [TRG 2405-263] | 61.6%
6 | CNC(CN)CCCCN1Cc2ccccc2C(CNC2CCCCC2)C1c1cc2c3c(c1O)CCCN3CCC2 (stereo not drawn) [TRG 2405-264] | 35%
7 | CNC(CN)CCCCN1Cc2ccccc2C(CNC2CCCCC2)C1c1ccc(Br)o1 (stereo not drawn) [TRG 2405-269] | 55.9%
8 | CNC(CN)CCCCN1Cc2ccccc2C(CNC2CCCCC2)C1c1nccs1 (stereo not drawn) [TRG 2405-270] | 41.1%

Same assay, conditions: 10 μM isoquinoline compound, HEK 293 cells expressing MCR-1, duplicate 2

Row | SMILES | % Disp. of 125I-HP 467 (second of duplicate)
9 | CNC(CN)CCCCN1Cc2ccccc2C(CNC2CCCCC2)C1c1ccnc2ccccc12 (stereo not drawn) [TRG 2405-255] | 25.3%
10 | CNC(CN)CCCCN1Cc2ccccc2C(CNC2CCCCC2)C1c1ccc(C)s1 (stereo not drawn) [TRG 2405-258] | 81.9%
11 | CNC(CN)CCCCN1Cc2ccccc2C(CNC2CCCCC2)C1c1ccc(C)o1 (stereo not drawn) [TRG 2405-259] | 46.1%
12 | CNC(CN)CCCCN1Cc2ccccc2C(CNC2CCCCC2)C1c1cccc(C)n1 (stereo not drawn) [TRG 2405-261] | 47.8%
13 | CCn1c2ccccc2c2cc(C3C(CNC4CCCCC4)c4ccccc4CN3CCCCC(CN)NC)ccc21 (stereo not drawn) [TRG 2405-263] | 65.3%
14 | CNC(CN)CCCCN1Cc2ccccc2C(CNC2CCCCC2)C1c1cc2c3c(c1O)CCCN3CCC2 (stereo not drawn) [TRG 2405-264] | 39.4%
15 | CNC(CN)CCCCN1Cc2ccccc2C(CNC2CCCCC2)C1c1ccc(Br)o1 (stereo not drawn) [TRG 2405-269] | 57.7%
16 | CNC(CN)CCCCN1Cc2ccccc2C(CNC2CCCCC2)C1c1nccs1 (stereo not drawn) [TRG 2405-270] | 33.7%

Same assay, conditions: binding to MC receptors, Table 1

Row | SMILES | effectiveness as MC receptor ligand
17 | CCCCNC(CN)CCCCN1Cc2ccccc2C(CNC2CCCCC2)C1c1ccc(NCC)cc1 (stereo not drawn) [TRG 2411-50] | particularly effective MC receptor ligands
18 | CCNc1ccc(C2C(CN)c3ccccc3CN2CCCCC(CN)NCC)cc1 (stereo not drawn) [TRG 2411-60] | particularly effective MC receptor ligands

Same assay, conditions: competition with 125I-HP 467, HEK 293 cells expressing MCR-1; read-out: MC-1 IC50

Row | SMILES | IC50
19 | CCCCNc1ccc(C2C(CN)c3ccccc3CN2CCCC(CN)NCCc2ccc(Br)cc2)cc1 (stereo not drawn) [TRG 2409-222] | 120 nM
20 | CCCCNc1ccc(C2C(CN)c3ccccc3CN2CCCC(CN)NCc2ccc(OC)cc2)cc1 (stereo not drawn) [TRG 2409-226] | 100 nM
21 | CCCCNc1ccc(C2C(CN)c3ccccc3CN2CCCC(CN)NCCc2ccc3ccccc3c2)cc1 (stereo not drawn) [TRG 2409-227] | 170 nM
22 | CCCCNc1ccc(C2C(CN)c3ccccc3CN2CCCC(CN)NCCN)cc1 (stereo not drawn) [TRG 2409-229] | 230 nM
23 | CCNC(CN)CCCCN1Cc2ccccc2C(CNCCc2ccccc2)C1c1ccc(-c2ccccc2)cc1 (stereo not drawn) [TRG 2411-2] | 550 nM
24 | NC[C@H](CCCCN1Cc2ccccc2C(CNCCc2ccccc2)C1c1ccc(-c2ccccc2)cc1)NCCc1ccccc1 (stereo partly drawn) [TRG 2411-3] | 880 nM
25 | CNCCNC(CN)CCCCN1Cc2ccccc2C(CNCCc2ccccc2)C1c1ccc(-c2ccccc2)cc1 (stereo not drawn) [TRG 2411-4] | 700 nM
26 | NCCN[C@H](CN)CCCCN1Cc2ccccc2C(CNCCc2ccccc2)C1c1ccc(-c2ccccc2)cc1 (stereo partly drawn) [TRG 2411-5] | 790 nM
27 | CNC(C)CNC(CN)CCCCN1Cc2ccccc2C(CNCCc2ccccc2)C1c1ccc(-c2ccccc2)cc1 (stereo not drawn) [TRG 2411-6] | 470 nM
28 | NCC(CCCCN1Cc2ccccc2C(CNCCc2ccccc2)C1c1ccc(-c2ccccc2)cc1)NCCO (stereo not drawn) [TRG 2411-7] | 630 nM
29 | CNC(CNC(CN)CCCCN1Cc2ccccc2C(CNCCc2ccccc2)C1c1ccc(-c2ccccc2)cc1)Cc1ccccc1 (stereo not drawn) [TRG 2411-8] | 760 nM
30 | COCCNC(CN)CCCCN1Cc2ccccc2C(CNCCc2ccccc2)C1c1ccc(-c2ccccc2)cc1 (stereo not drawn) [TRG 2411-10] | 1100 nM
31 | NCC(CCCCN1Cc2ccccc2C(CNCCc2ccccc2)C1c1ccc(-c2ccccc2)cc1)NCC1CCCCC1 (stereo not drawn) [TRG 2411-12] | 730 nM
32 | NCC(CCCCN1Cc2ccccc2C(CNCCc2ccccc2)C1c1ccc(-c2ccccc2)cc1)NCc1ccccc1 (stereo not drawn) [TRG 2411-13] | 1360 nM
33 | CCNC(CN)CCCCN1Cc2ccccc2C(CNC2CCCCC2)C1c1ccc(-c2ccccc2)cc1 (stereo not drawn) [TRG 2411-14] | 460 nM
34 | NCC(CCCCN1Cc2ccccc2C(CNC2CCCCC2)C1c1ccc(-c2ccccc2)cc1)NCCO (stereo not drawn) [TRG 2411-16] | 900 nM
35 | CNC(CNC(CN)CCCCN1Cc2ccccc2C(CNC2CCCCC2)C1c1ccc(-c2ccccc2)cc1)Cc1ccccc1 (stereo not drawn) [TRG 2411-17] | 390 nM
36 | COCCNC(CN)CCCCN1Cc2ccccc2C(CNC2CCCCC2)C1c1ccc(-c2ccccc2)cc1 (stereo not drawn) [TRG 2411-19] | 490 nM
37 | NCC(N)CCCCN1Cc2ccccc2C(CN)C1c1ccc(-c2ccccc2)cc1 (stereo not drawn) [TRG 2411-23] | 590 nM
38 | CCNC(CN)CCCCN1Cc2ccccc2C(CN)C1c1ccc(-c2ccccc2)cc1 (stereo not drawn) [TRG 2411-24] | 530 nM
39 | NCC(CCCCN1Cc2ccccc2C(CN)C1c1ccc(-c2ccccc2)cc1)NCCc1ccccc1 (stereo not drawn) [TRG 2411-25] | 350 nM

Row | SMILES | IC50
40 | NCCNC(CN)CCCCN1Cc2ccccc2C(CN)C1c1ccc(-c2ccccc2)cc1 (stereo not drawn) [TRG 2411-27] | 660 nM
41 | NCC1c2ccccc2CN(CCCCC(CN)N2CCCC2)C1c1ccc(-c2ccccc2)cc1 (stereo not drawn) [TRG 2411-31] | 970 nM
42 | COCCNC(CN)CCCCN1Cc2ccccc2C(CN)C1c1ccc(-c2ccccc2)cc1 (stereo not drawn) [TRG 2411-32] | 550 nM
43 | NCC(CCCCN1Cc2ccccc2C(CN)C1c1ccc(-c2ccccc2)cc1)NCC1CCCCC1 (stereo not drawn) [TRG 2411-34] | 350 nM
44 | CCNc1ccc(C2C(CNCCc3ccccc3)c3ccccc3CN2CCCCC(N)CN)cc1 (stereo not drawn) [TRG 2411-36] | 130 nM
45 | CCNc1ccc(C2C(CNCCc3ccccc3)c3ccccc3CN2CCCCC(CN)NCC)cc1 (stereo not drawn) [TRG 2411-37] | 130 nM
46 | CCNc1ccc(C2C(CNCCc3ccccc3)c3ccccc3CN2CCCCC(CN)NCCC2CCCCC2)cc1 (stereo not drawn) [TRG 2411-47] | 220 nM
47 | CCNc1ccc(C2C(CNCCc3ccccc3)c3ccccc3CN2CCCCC(CN)NCCN)cc1 (stereo not drawn) [TRG 2411-48] | 300 nM
48 | CCNc1ccc(C2C(CNC3CCCCC3)c3ccccc3CN2CCCCC(CN)NCC)cc1 (stereo not drawn) [TRG 2411-49] | 220 nM
49 | CCCCNC(CN)CCCCN1Cc2ccccc2C(CNC2CCCCC2)C1c1ccc(NCC)cc1 (stereo not drawn) [TRG 2411-50] | 80 nM
50 | CCNc1ccc(C2C(CNC3CCCCC3)c3ccccc3CN2CCCCC(CN)NCc2ccc(OC)cc2)cc1 (stereo not drawn) [TRG 2411-56] | 130 nM
51 | CCNc1ccc(C2C(CN)c3ccccc3CN2CCCCC(N)CN)cc1 (stereo not drawn) [TRG 2411-59] | 370 nM
52 | CCNc1ccc(C2C(CN)c3ccccc3CN2CCCCC(CN)NCC)cc1 (stereo not drawn) [TRG 2411-60] | 50 nM
53 | CCCCNC(CN)CCCCN1Cc2ccccc2C(CN)C1c1ccc(NCC)cc1 (stereo not drawn) [TRG 2411-61] | 110 nM
54 | CCNc1ccc(C2C(CN)c3ccccc3CN2CCCC[C@@H](CN)NCCc2ccc(Br)cc2)cc1 (stereo partly drawn) [TRG 2411-64] | 480 nM
55 | CCNc1ccc(C2C(CN)c3ccccc3CN2CCCCC(CN)NCCc2ccc(OC)cc2)cc1 (stereo not drawn) [TRG 2411-65] | 390 nM
56 | CCNc1ccc(C2C(CN)c3ccccc3CN2CCCCC(CN)NCc2ccccc2)cc1 (stereo not drawn) [TRG 2411-66] | 110 nM
57 | CCNc1ccc(C2C(CN)c3ccccc3CN2CCCCC(CN)NCc2ccc(Cl)cc2)cc1 (stereo not drawn) [TRG 2411-67] | 210 nM
58 | CCNc1ccc(C2C(CN)c3ccccc3CN2CCCCC(CN)NCc2ccc(OC)cc2)cc1 (stereo not drawn) [TRG 2411-68] | 120 nM
59 | CCNc1ccc(C2C(CN)c3ccccc3CN2CCCCC(CN)NCCc2ccc3ccccc3c2)cc1 (stereo not drawn) [TRG 2411-69] | 370 nM
60 | CCNc1ccc(C2C(CN)c3ccccc3CN2CCCCC(CN)NCCC2CCCCC2)cc1 (stereo not drawn) [TRG 2411-70] | 160 nM

Row | SMILES | IC50
61 | CCNc1ccc(C2C(CN)c3ccccc3CN2CCCCC(CN)NCCN)cc1 (stereo not drawn) [TRG 2411-71] | 390 nM
62 | CCCCNc1ccc(C2C(CNCCc3ccccc3)c3ccccc3CN2CCCCC(N)CN)cc1 (stereo not drawn) [TRG 2411-72] | 250 nM
63 | CCCCNc1ccc(C2C(CNCCc3ccccc3)c3ccccc3CN2CCCCC(CN)NC)cc1 (stereo not drawn) [TRG 2411-73] | 190 nM
64 | CCCCNc1ccc(C2C(CNCCc3ccccc3)c3ccccc3CN2CCCCC(CN)NCCN)cc1 (stereo not drawn) [TRG 2411-85] | 310 nM
65 | CCCCNc1ccc(C2C(CNC3CCCCC3)c3ccccc3CN2CCCCC(CN)N2CCCC2)cc1 (stereo not drawn) [TRG 2411-89] | 60 nM
66 | CCCCNc1ccc(C2C(CNC3CCCCC3)c3ccccc3CN2CCCCC(CN)NCCc2ccc(Br)cc2)cc1 (stereo not drawn) [TRG 2411-91] | 640 nM
67 | CCCCNc1ccc(C2C(CNC3CCCCC3)c3ccccc3CN2CCCCC(CN)NCCc2ccc(OC)cc2)cc1 (stereo not drawn) [TRG 2411-92] | 300 nM
68 | CCCCNc1ccc(C2C(CNC3CCCCC3)c3ccccc3CN2CCCCC(CN)NCc2ccccc2)cc1 (stereo not drawn) [TRG 2411-93] | 130 nM
69 | CCCCNc1ccc(C2C(CN)c3ccccc3CN2CCCCC(CN)NC)cc1 (stereo not drawn) [TRG 2411-100] | 130 nM
70 | CCCCNc1ccc(C2C(CN)c3ccccc3CN2CCCCC(CN)NCC)cc1 (stereo not drawn) [TRG 2411-101] | 100 nM
71 | CCCCNc1ccc(C2C(CN)c3ccccc3CN2CCCCC(CN)N2CCCC2)cc1 (stereo not drawn) [TRG 2411-103] | 20 nM
72 | CCCCNc1ccc(C2C(CN)c3ccccc3CN2CCCCC(CN)NCCc2ccc(OC)cc2)cc1 (stereo not drawn) [TRG 2411-106] | 370 nM
73 | CCCCNc1ccc(C2C(CN)c3ccccc3CN2CCCCC(CN)NCc2ccccc2)cc1 (stereo not drawn) [TRG 2411-107] | 340 nM
74 | NC[C@@H](N)CCCN1Cc2ccccc2C(CNCCc2ccccc2)C1c1ccc(-c2ccccc2)cc1 (stereo partly drawn) [TRG 2411-113] | 500 nM
75 | CNC(CN)CCCN1Cc2ccccc2C(CNCCc2ccccc2)C1c1ccc(-c2ccccc2)cc1 (stereo not drawn) [TRG 2411-114] | 760 nM
76 | CNCCNC(CN)CCCN1Cc2ccccc2C(CNCCc2ccccc2)C1c1ccc(-c2ccccc2)cc1 (stereo not drawn) [TRG 2411-117] | 970 nM
77 | NCCNC(CN)CCCN1Cc2ccccc2C(CNCCc2ccccc2)C1c1ccc(-c2ccccc2)cc1 (stereo not drawn) [TRG 2411-118] | 350 nM
78 | CNC(C)CNC(CN)CCCN1Cc2ccccc2C(CNCCc2ccccc2)C1c1ccc(-c2ccccc2)cc1 (stereo not drawn) [TRG 2411-119] | 370 nM
79 | NCC(CCCN1Cc2ccccc2C(CNCCc2ccccc2)C1c1ccc(-c2ccccc2)cc1)NCCO (stereo not drawn) [TRG 2411-120] | 1700 nM
80 | CNC(CNC(CN)CCCN1Cc2ccccc2C(CNCCc2ccccc2)C1c1ccc(-c2ccccc2)cc1)Cc1ccccc1 (stereo not drawn) [TRG 2411-121] | 1070 nM
81 | COCCNC(CN)CCCN1Cc2ccccc2C(CNCCc2ccccc2)C1c1ccc(-c2ccccc2)cc1 (stereo not drawn) [TRG 2411-123] | 1540 nM
